Tested on: human RBC's
Assay: Binding of compound to RBC substrate and stability of the surface-bound moiety, anti-acridine antibody staining by flow cytometry (MFI)
Assay type: cell-based
Details: at 37° C.; 0.2 mM compound, 2.0 mM GSH, overnight; mAb and polyAb staining
Experimental: A study was performed to assess binding to RBC substrate by the compound 5-220, which is a non-frangible analog of S-303. This study also compared the stability of the surface bound moiety of the 5-220 compound to the stability of a similarly bound frangible S-303. More specifically, glutathione (GSH) quencher and the 5-220 compound were added to human RBC's substrate at concentrations of 2.0 mM and 0.2 mM, respectively, and then incubated overnight at 37° C. or 4° C. For comparison, GSH quencher and the frangible S-303 compound were similarly added to human RBC's at concentrations of 2.0 mM and 0.2 mM, respectively, and incubated overnight at 37° C. or 4° C. Both the non-frangible 5-220 and frangible S-303 compounds comprise an acridine moiety as part of their structures. Following incubation, the GSH/S-220 and GSH/S-303 treated RBC's were stained with either a mouse monoclonal (mAb) or rabbit polyclonal (polyAb) anti-acridine antibody (also at 4° C. or 37° C.), and the samples analyzed for antibody binding by flow cytometry using standard methods (quantitated as MFI). Both the mAb and polyAb anti-acridine antibodies were generated using the compound 5-197 for immunization.

O=C(CCNc1c2ccccc2nc2ccccc12)OCCN(CCCl)CCCl [S-303, β-alanine, N-(acridin-9-yl), 2-[bis(2-chloroethyl)amino]ethyl ester]
stability of binding to RBC's: less stable than 5-220 binding to RBC's
